Measured values: patent publication US20170114346A1, “GENE EXPRESSION SYSTEM AND […]” (priority 2014, published 2017)

Test system: 6-OHDA lesioned rats (striatum)
Test: Experiment 1 online microdialysis in anesthetized rats (baseline, NSD-1015, NSD+TMP)
Type: in vivo, rat
Protocol: The second microdialysis protocol in Experiment 1 (identical microdialysis methods and protocols were used in the pilot study) was performed in anaesthetized animals was performed in TH+DD-GCH1 treated animals that received oral TMP administration in their drinking water at least 2 weeks prior sampling; either 0.5 mg/ml (n=4) or 2 mg/ml (n=5) (same TMP emulsion that was administered to the animals followed with behavior tests). In addition, this experiment also included animals from the TH+GCH1 (n=3), Les-Sham (n=2) and intact control (n=3) groups. Probe placement was calculated to position the membrane of the probe in the center of the transduction area in striatum, which corresponded to the coordinates: AP: +0.5 mm; ML: −3.7 mm and DV: −5.7 mm with the tooth bar set to −2.4 mm. […] Samples were analyzed readily as described for the first microdialysis experiment. After the last sample was collected the animal was terminated and brain tissue taken for histology.

COc1cc(Cc2cnc(N)nc2N)cc(OC)c1OC [TMP, trimethoprim]
biochemical reconstitution with oral TMP (0.5 and 2.0 mg/ml TMP in drinking water, TH+DD-GCH1 treated rats): both were effective in reaching a similar biochemical reconstitution
DOPA levels after addition of TMP to the ringer solution (2E-5 M TMP lactate plus NSD-1015 via probe for 2 h, after 2 weeks oral TMP): did not further increase the DOPA levels
